Data from publication PMC5500991, “Substituted arylsulphonamides as inhibitors of perforin-mediated lysis” (European Journal of Medicinal Chemistry, 2017).

Assays:
[1] = molecular target: T1, perforin delivered by KHYG1 NK cells (Homo sapiens, UniProt P14222); assay: KHYG1 inhibitory assay: lysis of 51Cr-labelled K562 target cells by KHYG1 NK cells; format: cell-based; details: 51Cr-labelled K562 target cells co-incubated with KHYG1 human NK cells, vs untreated control, n = 4
T1 construct: The use of whole NK cells to deliver perforin provides a more realistic model of conditions in vivo; endogenous in cells; host or cells: KHYG1 human NK cells (effector); K562 leukemia target cells
T1 sequence (P14222 22-555): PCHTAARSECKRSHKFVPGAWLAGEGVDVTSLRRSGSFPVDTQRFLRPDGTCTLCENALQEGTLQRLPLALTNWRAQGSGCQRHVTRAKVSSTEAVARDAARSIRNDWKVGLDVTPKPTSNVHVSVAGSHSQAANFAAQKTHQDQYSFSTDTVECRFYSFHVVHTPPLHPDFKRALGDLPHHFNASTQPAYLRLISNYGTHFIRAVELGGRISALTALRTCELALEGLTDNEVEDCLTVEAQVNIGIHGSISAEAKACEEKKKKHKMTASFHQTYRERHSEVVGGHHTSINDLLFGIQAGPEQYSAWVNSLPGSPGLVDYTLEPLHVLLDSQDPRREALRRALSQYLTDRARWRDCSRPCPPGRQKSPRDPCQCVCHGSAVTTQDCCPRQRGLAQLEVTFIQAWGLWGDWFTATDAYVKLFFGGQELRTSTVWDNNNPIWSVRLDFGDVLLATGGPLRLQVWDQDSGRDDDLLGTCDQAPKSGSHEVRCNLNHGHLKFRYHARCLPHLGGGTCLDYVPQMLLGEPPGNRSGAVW
Protocol: The inhibitory function is then determined by identifying the number of untreated or inhibitor treated effector cells required to kill the same number of targets.

[2] = Toxicity to KHYG1 NK cells (Trypan blue exclusion); format: cell-based, human; details: human, viability of KHYG1 NK cells after 24 h, n = 3
Protocol: The toxicity assay was carried out in exactly the same manner as the killing assay above, but instead of adding the labelled K562 target cells, 100 μL of RPMI 0.1% BSA was added. Cells were incubated for 4 h at 37 °C and then washed ×3 in RPMI + 0.1% BSA. […] Trypan blue was added to each well. Viable (clear) cells and total (clear + blue) cells were counted, and the percentage of viable cells was calculated compared to DMSO treated cell control (% viability).

[3] = In vivo plasma pharmacokinetics in mice; details: mouse plasma, 10 mg/kg i.p. in 20% hydroxypropyl-β-cyclodextrin
Protocol: The in vivo PK parameters were measured for seven compounds selected on the basis of the in vitro assessment described above. Plasma pharmacokinetics were determined in male CD-1 mice for compounds 3, 10, 11, 26, 50, 58 and 59 (Table 6). Blood samples were collected at 5–8 time-points after dosing the compounds at 10 mg/kg in a solution of 20% hydroxypropyl-β-cyclodextrin by intraperitoneal (IP) injection. For analysis of the samples, chromatographic conditions were optimised by HPLC for each compound of interest and an internal standard. A liquid chromatography with tandem mass spectrometry (LC-MS/MS) method was then developed and validated for quantitation of each analyte.
PK studies were carried out in female C57BL/6J (female) mice using IP administration of test compound, dosing at 10 mg/kg in a solution of 20% hydroxypropyl-β-cyclodextrin. Mice (n=3 at each time point) were culled with excess inhalation of CO2 and blood collected by cardiac puncture at 5-8 time points after dosing in ice cold EDTA tubes. Plasma was separated by centrifuging at 6000 rpm for 5 min and stored at -80°C until analysis by LC-MS/MS. Frozen plasma was thawed on wet ice on the day of analysis. Ten μL of sample was transferred to a clean microcentrifuge tube and mixed with ice cold acetonitrile (40 μL containing internal standard) to precipitate the plasma proteins. The tubes were centrifuged at 13000 rpm for 5 min to obtain a clear supernatant which was mixed with 0.01% formic acid-water (1:2). Ten to twenty µL was injected into the LC-MS/MS to measure the analyte concentration in the sample. The samples were quantitated against a calibration curve of known analyte concentrations run in test species blank plasma (sourced from Innovative Research, USA). The concentration vs time data was then fitted into a pharmacokinetic software program (Phoenix WinNonlin v6.2) to calculate the PK parameters including T½, Cmax and AUC0-∞.

[4] = Microsome stability, mouse; format: in vitro ADME; details: parent (as sodium salt) remaining after 30 min, mouse microsomes
Protocol: (§1) Microsome stability was carried out at Cyprotex using pooled human liver microsomes (male and female), pooled rat liver microsomes (male, Sprague Dawley rats), pooled mouse liver microsomes (male CD-1 mice) which were either prepared or purchased from a reputable commercial supplier. […] The final incubation volume was 25 μL. A control incubation was included for each compound tested where 0.1 M phosphate buffer pH 7.4 was added instead of NADPH (minus NADPH). Two control compounds were included with each species. All incubations were performed singularly for each test compound. Each compound was incubated for 0, 5, 15, 30 and 45 min. The control (minus NADPH) was incubated for 45 min only. The reactions were stopped by the addition of 50 μL methanol containing internal standard at the appropriate time points. The incubation plates were centrifuged at 2,500 rpm for 20 min at 4 °C to precipitate the protein. Following precipitation, the sample supernatants were combined in cassettes of up to 4 compounds and analysed using Cyprotex generic LC-MS/MS conditions. From a plot of ln peak area ratio (compound peak area/internal standard peak area) against time, the percentage compound remaining at 30 min was calculated. Results that were > 100% of matched control were defined as 100%.

Microsome stability, rat = format: in vitro ADME; details: parent (as sodium salt) remaining after 30 min, rat microsomes
Protocol: as §1

[5] = Stability in solution (water, 20 °C, 24 h); format: physicochemical; details: sodium salt, 24 h at 20 °C in water
Protocol: Test compounds were incubated (10 μM; < 2.5% DMSO in final concentration) in Milli Q water (n=3 tubes) at 20 °C for 24 h. (Eppendorf Thermomixer Comfort). Aliquots were collected (25 μL) just before the incubation (time “0 min”) and at 24 h. These samples were stored in a -80 °C freezer until the analysis by liquid chromatography with tandem mass spectrometry spectrometry (LC-MS/MS) – see next section for method development. Samples were thawed on wet ice on the day of assay. Thawed aliquots were mixed by vortex mixer, 10 μL of the sample transferred to a clean tube, 40 μL of ice cold acetonitrile added (containing internal standard compound), then centrifuged at 13,000 rpm for 5 min, 40 μL of clear supernatant transferred to an HPLC insert and mixed with 80 μL of 0.01% formic acid in water. Ten to 20 μL was injected onto the LC-MS/MS system. Results are based on the peak area ratio of drug to internal standard at time “0 h” (i.e. before the incubation and at the end i.e. “24 h”).

[6] = Solubility of the sodium salt in water; format: physicochemical; details: sodium salt in water at room temperature
Protocol: The compound was dissolved in water until it was no longer soluble in order to achieve a supersaturated concentration. The suspensions were sonicated for 15 min. prior to centrifugation at 13,000 revolutions per minute (rpm) for 6 minutes. Supernatants were removed and then recentrifuged prior to dilution of at least two fold in water to avoid precipitation during HPLC analysis.

Row | Compound | inhibition at 10 µM [1] [%] | viability at 24 h, 10 µM [2] [%] | AUC0-∞ [3] [µM·h] | Cmax [3] [µM] | T1/2 [3] [h] | Microsome Stability (%) Mouse [4] [%] | Microsome Stability (%) Rat (Microsome stability, rat) [%] | Stability in Solution (% parent remaining) [5] [%] | Solubility [6] | solubility at 15 min [6] [µg/mL] | melting point [°C]
1 | CN1Cc2cc(-c3ccc(-c4cncc(NS(=O)(=O)c5c(F)cc(F)cc5F)c4)s3)ccc2C1=O [Compound 26, 2,4,6-Trifluoro-N-(5-(5-(2-methyl-1-oxoisoindolin-5-yl)thiophen-2-yl)pyridin-3-yl)benzenesulfonamide] | 81.3 ± 6.3 | 95.1 ± 2.1 | 1019 | 124 | 4.5 | 100 | 83 | 88 | highly soluble | 10700 | 
2 | CN1Cc2cc(-c3ccc(-c4cncc(NS(=O)(=O)c5cccc(C(F)(F)F)c5)c4)s3)ccc2C1=O [Compound 45, N-(5-(5-(2-Methyl-1-oxoisoindolin-5-yl)thiophen-2-yl)pyridin-3-yl)-3-(trifluoromethyl)benzenesulfonamides] | 88.8 ± 1.9 | 100 |  |  |  | 97 | 80 |  | negative impact on solubility | 574 | 
3 | CN1Cc2cc(-c3ccc(-c4cncc(NS(=O)(=O)c5cc(C(F)(F)F)cc(C(F)(F)F)c5)c4)s3)ccc2C1=O [Compound 47, N-(5-(5-(2-Methyl-1-oxoisoindolin-5-yl)thiophen-2-yl)pyridin-3-yl)-3,5-bis(trifluoromethyl)benzenesulphonamide] | 0 | 90.2 ± 3.4 |  |  |  |  |  |  |  |  | 299 to 302
4 | CN1Cc2cc(-c3ccc(-c4cncc(NS(=O)(=O)c5ccccc5C(F)(F)F)c4)s3)ccc2C1=O [Compound 44, N-(5-(5-(2-Methyl-1-oxoisoindolin-5-yl)thiophen-2-yl)pyridin-3-yl)-2-(trifluoromethyl)benzenesulfonamide] | 85 ± 5.6 | 100 |  |  |  | 84 | 49 | 92 | negative impact on solubility | 88 | 
5 | CN1Cc2cc(-c3ccc(-c4cncc(NS(=O)(=O)c5ccc(C#N)cc5)c4)s3)ccc2C1=O [Compound 50, 4-Cyano-N-(5-(5-(2-methyl-1-oxoisoindolin-5-yl)thiophen-2-yl)pyridin-3-yl)benzenesulfonamide] | 75 ± 7.8 | 99.3 ± 0.3 | 642 | 87 | 3.3 | 87 | 64 | 85 | highly soluble | 12900 | 
6 | CN1Cc2cc(-c3ccc(-c4cncc(NS(=O)(=O)c5ccc([N+](=O)[O-])cc5)c4)s3)ccc2C1=O [Compound 59, N-(5-(5-(2-Methyl-1-oxoisoindolin-5-yl)thiophen-2-yl)pyridin-3-yl)-4-nitrobenzenesulfonamide] | 77.5 ± 5.6 | 85 ± 12 | 383 | 64 | 2.2 | 85 | 72 |  |  | 1680 | 
7 | Cc1ccc(S(=O)(=O)Nc2ccccn2)cc1-c1ccc(-c2ccc3c(c2)CN(C)C3=O)s1 [Compound 16, Sodium (4-methyl-3-(5-(2-methyl-1-oxoisoindolin-5-yl)thiophen-2-yl)phenylsulfonyl)(pyridin-2-yl)amide] | 0 | 96.1 ± 6 |  |  |  |  |  |  |  |  | 
8 | CN1Cc2cc(-c3ccc(-c4cnc(F)c(NS(=O)(=O)c5ccccn5)c4)s3)ccc2C1=O [Compound 20, N-(2-Fluoro-5-(5-(2-methyl-1-oxoisoindolin-5-yl)thiophen-2-yl)pyridin-3-yl)pyridine-2-sulfonamide] |  |  |  |  |  |  |  |  | significantly improved |  | 
9 | CN1Cc2cc(-c3ccc(-c4cc(NS(=O)(=O)c5ccccn5)ccc4F)s3)ccc2C1=O [Compound 17, N-{4-Fluoro-3-[5-(2-methyl-1-oxo-2,3-dihydro-1H-isoindol-5-yl)-2-thienyl]phenyl}-2-pyridinesulfonamide] | 0 | 91.4 ± 6.5 |  |  |  |  |  |  |  |  | 
10 | CN1Cc2cc(-c3ccc(-c4cncc(NS(=O)(=O)c5ccc(S(C)(=O)=O)cc5)c4)s3)ccc2C1=O [Compound 57, Sodium (5-(5-(2-methyl-1-oxoisoindolin-5-yl)thiophen-2-yl)pyridin-3-yl)((4-(methylsulfonyl)phenyl)sulfonyl)amide] | 0 | 90 ± 7.8 |  |  |  |  |  |  |  |  | 
